Earlier results on 2 molecules are cited in patent publication US8895065B2, “Single unit oral dose pharmaceutical composition comprising levodopa, carbidopa and entacapone or salts thereof” (Wockhardt Ltd., priority 2008, dated 2014).

Molecules are shown by their SMILES.

Turning to `C[C@@](Cc1ccc(O)c(O)c1)(NN)C(=O)O` [Carbidopa], the solubility in water result is recorded as “slightly soluble”.

With `N[C@@H](Cc1ccc(O)c(O)c1)C(=O)O` [Levodopa, (−)-L-α-amino-β-(3,4-dihydroxybenzene)propanoic acid], the solubility in water entry is recorded as “slightly soluble”.
